Test results reported in US20240150293A1, “SPIROCYCLOHEXANE DERIVATIVES, PHARMACEUTICAL COMPOSITIONS CONTAINING THEM AND THEIR USES AS ANTI-APOPTOTIC INHIBITORS” (LES LABORATOIRES SERVIER, priority 2021, published 2024).

Target: Mcl-1 protein (UniProtKB Q07820) (Homo sapiens (Human), UniProt Q07820)
Experiment: Inhibition of Mcl-1 by the fluorescence polarisation assay (Example A, Method A)
Type: binding
Details: fluorescence polarization assay
Outline: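 Protein (5 nM) and fluorescein-tagged peptide tracer (1 nM) incubated with 11-point compound series for 2 h at room temperature in HEPES/NaCl/Tween 20 buffer, pH 7.4, 5% DMSO. Displacement read as decrease in polarisation; IC50 fitted by 4-parameter logistic, converted to Ki (cKi or eKi).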

Mcl-1 protein, sequence (Q07820 whole entry): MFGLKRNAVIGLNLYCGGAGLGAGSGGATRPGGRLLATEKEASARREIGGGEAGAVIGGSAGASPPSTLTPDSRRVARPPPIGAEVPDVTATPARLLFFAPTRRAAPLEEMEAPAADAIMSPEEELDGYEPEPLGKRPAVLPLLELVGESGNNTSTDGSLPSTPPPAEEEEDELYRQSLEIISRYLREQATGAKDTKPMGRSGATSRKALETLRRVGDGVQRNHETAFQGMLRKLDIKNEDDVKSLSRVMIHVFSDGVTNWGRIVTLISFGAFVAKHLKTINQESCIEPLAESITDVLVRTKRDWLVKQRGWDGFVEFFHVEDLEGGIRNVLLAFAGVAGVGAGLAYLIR

O=C(O)[C@]1(Nc2cccc(Cl)c2)CC[C@@]2(CC1)c1ccccc1C[C@@H]2c1ccc(-c2ccccc2)o1 [Example 357, (1r,2′S,4S)-4-(3-chloroanilino)-2′-(5-phenylfuran-2-yl)-2′,3′-dihydrospiro[cyclohexane-1,1′-indene]-4-carboxylic acid]
Ki: 15400 nM

CN1CC2(CCC(Nc3cccc(Br)c3)(C(=O)O)CC2)c2ccccc21 (centres unmarked) [Example 4, 4-(3-bromoanilino)-1′-methyl-1′,2′-dihydrospiro[cyclohexane-1,3′-indole]-4-carboxylic acid]
Ki: 5950 nM

O=C(O)[C@]1(Nc2cccc(Cl)c2)CC[C@@]2(CC1)c1ccccc1CC2CCCOc1ccncc1F (some centres unmarked) [Example 432, (1r,4r)-4-(3-chloroanilino)-2′-{3-[(3-fluoropyridin-4-yl)oxy]propyl}-2′,3′-dihydrospiro[cyclohexane-1,1′-indene]-4-carboxylic acid]
Ki: 38.9 nM

Cc1cncnc1OCCCC1=Cc2ccccc2[C@]12CC[C@@](Nc1cccc(Br)c1)(C(=O)O)CC2 [Example 456, (1r,4r)-4-(3-bromoanilino)-2′-{3-[(5-methylpyrimidin-4-yl)oxy]propyl}spiro[cyclohexane-1,1′-indene]-4-carboxylic acid]
Ki: 104 nM

O=C(O)[C@]1(Nc2cccc(C(F)F)c2)CC[C@]2(CC1)C(Br)=Cc1ccccc12 [Example 83, (1s,4s)-2′-bromo-4-[3-(difluoromethyl)anilino]spiro[cyclohexane-1,1′-indene]-4-carboxylic acid]
Ki: 1360 nM

O=C(O)[C@]1(Nc2cccc(Br)c2)CC[C@]2(CC1)C(I)=Cc1ccccc12 [Example 77, (1s,4s)-4-(3-bromoanilino)-2′-iodospiro[cyclohexane-1,1′-indene]-4-carboxylic acid]
Ki: 227 nM

CC(O)c1ccc2c(c1)[C@]1(CC[C@@](Nc3cccc(Cl)c3)(C(=O)O)CC1)C(Br)=C2 (some centres unmarked) [Example 133, (1s,4s)-2′-bromo-4-(3-chloroanilino)-6′-(1-hydroxyethyl)spiro[cyclohexane-1,1′-indene]-4-carboxylic acid]
Ki: 57.6 nM

O=C(O)[C@]1(Nc2cccc(Cl)c2)CC[C@]2(CC1)C(Br)=Cc1cc(Cl)ccc12 [Example 135, (1s,4s)-2′-bromo-5′-chloro-4-(3-chloroanilino)spiro[cyclohexane-1,1′-indene]-4-carboxylic acid]
Ki: 200 nM

CN1CCN(CCCC2Cc3ccccc3[C@]23CC[C@@](Nc2cccc(Cl)c2)(C(=O)O)CC3)CC1=O (some centres unmarked) [Example 198, (1r,4r)-4-(3-chloroanilino)-2′-[3-(4-methyl-3-oxopiperazin-1-yl)propyl]-2′,3′-dihydrospiro[cyclohexane-1,1′-indene]-4-carboxylic acid]
Ki: 7480 nM

O=C(O)[C@]1(Nc2cccc(Cl)c2)CC[C@@]2(CCc3ccccc32)CC1 [Example 69, (1r,4s)-4-(3-chloroanilino)-2′,3′-dihydrospiro[cyclohexane-1,1′-indene]-4-carboxylic acid]
Ki: 706 nM

O=C(O)[C@]1(Nc2cccc(Cl)c2)CC[C@@]2(CC1)c1ccccc1CC2C1CCCC1 (single isomer, unassigned) [Example 92, (1r,4r)-4-(3-chloroanilino)-2′-cyclopentyl-2′,3′-dihydrospiro[cyclohexane-1,1′-indene]-4-carboxylic acid]
Ki: 7370 nM

O=C(O)[C@]1(Nc2cccc(Cl)c2)CC[C@@]2(CC1)c1ccccc1CC2c1cccc2ccoc12 (single isomer, unassigned) [Example 294, (1r,4r)-2′-(1-benzofuran-7-yl)-4-(3-chloroanilino)-2′,3′-dihydrospiro[cyclohexane-1,1′-indene]-4-carboxylic acid]
Ki: 6630 nM

COc1cccc(C2Cc3ccccc3[C@]23CC[C@@](Nc2cccc(Cl)c2)(C(=O)O)CC3)c1C (single isomer, unassigned) [Example 321, (1r,4r)-4-(3-chloroanilino)-2′-(3-methoxy-2-methylphenyl)-2′,3′-dihydrospiro[cyclohexane-1,1′-indene]-4-carboxylic acid]
Ki: 2940 nM

O=C(O)[C@]1(Nc2cccc(Cl)c2)CC[C@]2(CC1)C(c1ccsc1)=Cc1ccccc12 [Example 330, (1s,4s)-4-(3-chloroanilino)-2′-(thiophen-3-yl)spiro[cyclohexane-1,1′-indene]-4-carboxylic acid]
Ki: 2120 nM

O=C(O)[C@]1(Nc2cccc(Cl)c2)CC[C@@]2(CC1)c1ccccc1CC2[C@H]1C[C@@H]1COc1ccccc1 (relative stereo) [Example 111, (1r,4r)-4-(3-chloroanilino)-2′-[(1R*,2S*)-2-(phenoxymethyl)cyclopropyl]-2′,3′-dihydrospiro[cyclohexane-1,1′-indene]-4-carboxylic acid]
Ki: 9680 nM

Cc1ccccc1CCOCC1=Cc2ccccc2[C@]12CC[C@@](Nc1cccc(Cl)c1)(C(=O)O)CC2 [Example 415, (1s,4s)-4-(3-chloroanilino)-2′-{[2-(2-methylphenyl)ethoxy]methyl}spiro[cyclohexane-1,1′-indene]-4-carboxylic acid]
Ki: 365 nM

O=C(O)[C@]1(Nc2cccc(Cl)c2)CC[C@@]2(CC1)c1ccccc1CC2CCCCc1ccccc1 (some centres unmarked) [Example 394, (1r,4r)-4-(3-chloroanilino)-2′-(4-phenylbutyl)-2′,3′-dihydrospiro[cyclohexane-1,1′-indene]-4-carboxylic acid]
Ki: 134 nM

O=C(O)[C@]1(Nc2cccc(Cl)c2)CC[C@@]2(CC1)C(Br)=Cc1ccccc12 [Example 74, (1r,4r)-2′-bromo-4-(3-chloroanilino)spiro[cyclohexane-1,1′-indene]-4-carboxylic acid]
Ki: 23100 nM

O=C(O)[C@]1(Nc2cccc(Cl)c2)CC[C@]2(CC1)C(c1cccc(C(F)(F)F)c1)=Cc1ccccc12 [Example 312, (1s,4s)-4-(3-chloroanilino)-2′-[3-(trifluoromethyl)phenyl]spiro[cyclohexane-1,1′-indene]-4-carboxylic acid]
Ki: 839 nM

O=C(O)C1(Nc2cccc(Br)c2)CCC2(CC1)c1ccccc1CC2c1nccs1 (single isomer, unassigned) [Example 223, 4-(3-bromoanilino)-2′-(1,3-thiazol-2-yl)-2′,3′-dihydrospiro[cyclohexane-1,1′-indene]-4-carboxylic acid]
Ki: 14300 nM

O=C(O)[C@]1(Nc2cccc(Cl)c2)CC[C@]2(CC1)C(c1ccccc1)=Cc1ccccc12 [Example 305, (1s,4s)-4-(3-chloroanilino)-2′-phenylspiro[cyclohexane-1,1′-indene]-4-carboxylic acid]
Ki: 663 nM

O=C(O)[C@]1(Nc2cccc(Cl)c2)CC[C@@]2(CC1)c1ccccc1CC2c1ccc(Cl)cc1 (single isomer, unassigned) [Example 320, (1r,4r)-4-(3-chloroanilino)-2′-(4-chlorophenyl)-2′,3′-dihydrospiro[cyclohexane-1,1′-indene]-4-carboxylic acid]
Ki: 6860 nM

Cn1ccc2cc(C3=Cc4ccccc4[C@]34CC[C@@](Nc3cccc(Cl)c3)(C(=O)O)CC4)ccc21 [Example 264, (1s,4s)-4-(3-chloroanilino)-2′-(1-methyl-1H-indol-5-yl)spiro[cyclohexane-1,1′-indene]-4-carboxylic acid]
Ki: 1750 nM

COc1ccc(C2=Cc3ccccc3[C@]23CC[C@](Nc2cccc(Cl)c2)(C(=O)O)CC3)cc1C [Example 224, (1r,4r)-4-(3-chloroanilino)-2′-(4-methoxy-3-methylphenyl)spiro[cyclohexane-1,1′-indene]-4-carboxylic acid]
Ki: 22300 nM

Nc1cc(Cl)c(OCCCC2Cc3ccccc3[C@]23CC[C@@](Nc2cccc(Cl)c2)(C(=O)O)CC3)c(Cl)c1 (some centres unmarked) [Example 429, (1r,4r)-2′-[3-(4-amino-2,6-dichlorophenoxy)propyl]-4-(3-chloroanilino)-2′,3′-dihydrospiro[cyclohexane-1,1′-indene]-4-carboxylic acid]
Ki: 165 nM

O=C(O)[C@]1(Nc2cccc(Cl)c2)CC[C@]2(CC1)C(c1ccc3ccoc3c1)=Cc1ccccc12 [Example 265, (1s,4s)-2′-(1-benzofuran-6-yl)-4-(3-chloroanilino)spiro[cyclohexane-1,1′-indene]-4-carboxylic acid]
Ki: 1100 nM

COc1ccc2c(c1)[C@]1(CC[C@@](Nc3cccc(Br)c3)(C(=O)O)CC1)C(Cc1ccccc1)C2 (some centres unmarked) [Example 127, (1r,4r)-2′-benzyl-4-(3-bromoanilino)-6′-methoxy-2′,3′-dihydrospiro[cyclohexane-1,1′-indene]-4-carboxylic acid]
Ki: 2820 nM

COc1cccc([C@H]2Cc3ccccc3[C@]23CC[C@@](Nc2cccc(Br)c2)(C(=O)O)CC3)c1 [Example 220, (1r,2′R,4R)-4-(3-bromoanilino)-2′-(3-methoxyphenyl)-2′,3′-dihydrospiro[cyclohexane-1,1′-indene]-4-carboxylic acid]
Ki: 7230 nM

O=C(O)[C@]1(Nc2cccc(Br)c2)CC[C@@]2(CCCc3ccccc32)CC1 [Example 119, (1r,4s)-4-(3-bromoanilino)-3′,4′-dihydro-2′H-spiro[cyclohexane-1,1′-naphthalene]-4-carboxylic acid]
Ki: 836 nM

CN(Cc1ccccc1)CC1=Cc2ccccc2[C@]12CC[C@@](Nc1cccc(Cl)c1)(C(=O)O)CC2 [Example 184, (1s,4s)-2′-{[benzyl(methyl)amino]methyl}-4-(3-chloroanilino)spiro[cyclohexane-1,1′-indene]-4-carboxylic acid]
Ki: 1230 nM

C=CCOc1ccc2c(c1)[C@]1(CC2)CC[C@](Nc2cccc(Br)c2)(C(=O)O)CC1 [Example 68, (1r,4s)-4-(3-bromoanilino)-6′-[(prop-2-en-1-yl)oxy]-2′,3′-dihydrospiro[cyclohexane-1,1′-indene]-4-carboxylic acid]
Ki: 302 nM

CCC1=C(C)[C@]2(CC[C@@](Nc3cccc(Cl)c3)(C(=O)O)CC2)c2ccccc21 [Example 206, (1s,4s)-4-(3-chloroanilino)-3′-ethyl-2′-methylspiro[cyclohexane-1,1′-indene]-4-carboxylic acid]
Ki: 4680 nM
